For one data set, the system named is cynomolgus monkeys. In words: Evaluation of wake-promoting effects in cynomolgus monkeys (EEG/EMG). The data set is classed as in vivo, cynomolgus monkey. As to conditions: Macaca fascicularis, po, time spent in wakefulness for 4 h after administration, read-out: Wakefulness time (% of vehicle treatment) (Mean); for response vs control in vivo at 3 mg/kg: 3 mg/kg p.o. at ZT12; for response vs control in vivo at 10 mg/kg: 10 mg/kg p.o. at ZT12. The protocol: The wake-promoting effects were evaluated by measuring the electroencephalogram (EEG) and electromyogram (EMG) in cynomolgus monkeys. Under isoflurane anesthesia (1-5%, Pfizer Japan Inc., Tokyo, Japan), male cynomolgus monkeys (3-5 years old, Hamri Co., Ltd., Ibaraki, Japan) were surgically implanted with radio-telemetry transmitters (TL10M3-D70-EEE, Data Sciences International Inc., MN, USA). EEG electrodes were screwed into the skull at the parietal area. EMG electrodes were implanted on the cervical muscles. After the surgery, each monkey was given penicillin (100,000 units/head, i.m., Meiji Seika Pharma Co., Ltd., Tokyo, Japan), buprenorphine (0.02 mg/kg, i.m., Otsuka Pharmaceutical Co., Ltd., Tokyo, Japan) and prednisolone (1 mg/kg, s.c., Kyoritsu Seiyaku Co., Ltd., Tokyo, Japan) daily for one week. After at least a 1-month recovery period in home cages, the monkeys were habituated to the recording chamber placed in a soundproof room. EEG and EMG signals were recorded using the telemetry system (Dataquest ART software, Data Sciences International Inc., MN, USA) and the signals were analyzed using SleepSign software (Kissei Comtec Co., Ltd., Nagano, Japan). After confirming long sleep in dark phase in the experimental room, we used animals to examine the wake-promoting effect of compounds.
Oral test compounds (3 or 10 mg/kg) suspended in 0.5% methylcellulose aqueous solution, or vehicle (i.e., 0.5% methylcellulose aqueous solution) was administered orally (p.o.) to monkeys at zeitgeber time 12 (ZT12) in a volume of 5 mL/kg body weight in cross-over design or pre-post design (n=1-4). EEG and EMG recordings were performed for 4 h after the compound administration. The time spent in wakefulness for 4 h after administration (% of vehicle treatment) was calculated by using SleepSign.
Parenteral test compounds (0.1 or 0.3 mg/kg) dissolved in a mixed solution comprising 5% DMSO, 5% Cremophor EL, 20% PEG400 and 70% soluplus (1% (w/v)), or vehicle (i.e., a mixed solution comprising 5% DMSO, 5% Cremophor EL, 20% PEG400 and 70% soluplus (1% (w/v))) was administered subcutaneously (s.c.) to monkeys at ZT12 in a volume of 0.5 mL/kg body weight in a pre-post design (n=1-2). EEG and EMG recordings were performed for 4 h after the compound administration. The time spent in wakefulness for 4 h after administration (% of vehicle treatment) was calculated by using SleepSign.

For data set [1], the target named is T1, human orexin type 2 receptor (Homo sapiens, UniProt O43614).
T1 construct: expressed in transfected cells
T1 sequence (O43614 1-444): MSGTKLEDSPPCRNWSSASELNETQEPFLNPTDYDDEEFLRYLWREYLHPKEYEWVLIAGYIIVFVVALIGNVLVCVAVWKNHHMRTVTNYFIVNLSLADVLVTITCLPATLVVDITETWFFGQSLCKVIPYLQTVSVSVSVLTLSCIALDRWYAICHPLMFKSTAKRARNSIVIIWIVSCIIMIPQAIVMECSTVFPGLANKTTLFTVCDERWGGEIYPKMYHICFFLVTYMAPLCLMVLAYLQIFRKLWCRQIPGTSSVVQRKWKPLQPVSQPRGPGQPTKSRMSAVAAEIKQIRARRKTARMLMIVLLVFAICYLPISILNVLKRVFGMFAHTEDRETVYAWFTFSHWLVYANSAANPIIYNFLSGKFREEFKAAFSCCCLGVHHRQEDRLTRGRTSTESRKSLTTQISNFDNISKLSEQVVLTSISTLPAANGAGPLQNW
In words: Measurement of orexin type 2 receptor agonist activity (calcium indicator fluorescence, CHO cells forcibly expressing human OX2 receptor). The data set is classed as cell-based. The settings on record: compound at 3 μM; 0% = DMSO, 100% = orexin A (human) 10 nM. Put shortly:
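Agonist response normalised between vehicle (0%) and orexin A at 10 nM final (100%), from kinetic Fluo-4 calcium signals recorded for about 2 min after compound addition. Cells: stable human OX2R CHO clone, dye-loaded 30 min at 37 °C plus 30 min at room temperature.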

A short description of data set [2]: Evaluation of microsome stability in human. As to conditions: pH 7.4; in vitro intrinsic metabolic clearance; human liver microsomes 0.2 mg/mL, 1 μmol/L test compound, NADPH-generating system. The data set is classed as in vitro ADME. The method, then: Human liver microsomes were purchased from Xenotech, LLC (Lenexa, Kans.). An incubation mixture consisted of microsomes in 50 mmol/L KH2PO4—K2HPO4 phosphate buffer (pH 7.4) and 1 μmol/L test compound. The concentration of microsomal protein was 0.2 mg/mL. An NADPH-generating system (5 mmol/L MgCl2, 5 mmol/L glucose-6-phosphate, 0.5 mmol/L beta-NADP+ and 1.5 unit/mL glucose-6-phosphate dehydrogenase) was added to the incubation mixture with a half volume of the reaction mixture to initiate the enzyme reaction. The reaction was terminated 15 and 30 minutes after the initiation of the reaction by mixing the reaction mixture with acetonitrile, followed by centrifugation at 2500 rpm for 10 min. The supernatant was subjected to LC/MS/MS analysis. The metabolic rate constant was calculated as the slope of the remaining rate-time plot. The in vitro intrinsic metabolic clearance was calculated by dividing initial metabolic rate constant by microsomal protein in the incubation mixture.
For orientation: Liver microsomes are vesicles of endoplasmic reticulum, rich in cytochrome P450 enzymes.

As a reminder, the microsomal CLint is a measure of how fast metabolising enzymes remove a compound, apart from limits set by blood flow. A higher microsomal CLint goes with faster metabolism.

Regarding `CCS(=O)(=O)N[C@@H]1[C@H](Cc2cccc(-c3cc(F)cc(F)c3)c2F)N(C(=O)[C@H]2CCO2)CC1(F)F` [Example 56, N-{(2S,3R)-4,4-difluoro-1-((2R)-oxetane-2-carbonyl)-2-[(2,3′,5′-trifluoro[1,1′-biphenyl]-3-yl)methyl]pyrrolidin-3-yl}ethanesulfonamide], the response vs control in vivo at 3 mg/kg in the data set with cynomolgus monkeys was determined as 417%. Besides, the “OX2R agonist activity (3 μM, %)” value in data set [1] turned out to be 95%. The same compound came in with an intrinsic metabolic clearance (microsomal CLint) at 1 μmol/L in data set [2] of 135 µL/min/mg.

`CCS(=O)(=O)N[C@@H]1[C@H](Cc2cccc(-c3cccc(F)c3)c2F)N(C(=O)C(C)C)CC1(F)F` [Example 94, N-[(2S,3R)-2-[(2,3′-difluoro[1,1′-biphenyl]-3-yl)methyl]-4,4-difluoro-1-(2-methylpropanoyl)pyrrolidin-3-yl]ethanesulfonamide]: the response vs control in vivo at 3 mg/kg in the data set with cynomolgus monkeys is 442%. Moreover, the “OX2R agonist activity (3 μM, %)” value in data set [1] was 99%. This compound also displayed an intrinsic clearance (microsomal CLint) at 1 μmol/L in data set [2] of 44 µL/min/mg.

`CCS(=O)(=O)N[C@H]1[C@@H](F)CN(C(=O)C2CC2)[C@H]1Cc1cccc(-c2cc(F)cc(F)c2)c1F` [Example 236, N-{(2S,3R,4S)-1-(cyclopropanecarbonyl)-4-fluoro-2-[(2,3′,5′-trifluoro[1,1′-biphenyl]-3-yl)methyl]pyrrolidin-3-yl}ethanesulfonamide]: the response vs control in vivo at 10 mg/kg with cynomolgus monkeys stood at 716%. The “OX2R agonist activity (3 μM, %)” value in data set [1] is recorded as 100%. In addition, the intrinsic metabolic clearance (microsomal CLint) at 1 μmol/L in data set [2] was determined as 67 µL/min/mg.

Consider `CCS(=O)(=O)N[C@H]1[C@@H](F)CN(C(=O)[C@H]2CCO2)[C@H]1Cc1cccc(-c2ccccc2)c1F` [Example 302, N-[(2S,3R,4S)-4-fluoro-2-[(2-fluoro[1,1′-biphenyl]-3-yl)methyl]-1-((2R)-oxetane-2-carbonyl)pyrrolidin-3-yl]ethanesulfonamide], for which the response vs control in vivo at 10 mg/kg in the data set with cynomolgus monkeys came to 288%. In data set [1], the “OX2R agonist activity (3 μM, %)” value is listed as 85%. In data set [2], this compound showed an intrinsic metabolic clearance (microsomal CLint) at 1 μmol/L of 3 µL/min/mg.

For the compound `CCS(=O)(=O)N[C@@H]1[C@H](Cc2cccc(-c3cc(F)cc(F)c3)c2F)N(C(=O)C2CC2)CC1(F)F` [Example 144, N-{(2S,3R)-1-(cyclopropanecarbonyl)-4,4-difluoro-2-[(2,3′,5′-trifluoro[1,1′-biphenyl]-3-yl)methyl]pyrrolidin-3-yl}ethanesulfonamide], the response vs control in vivo at 3 mg/kg with cynomolgus monkeys is 649%. Besides, the “OX2R agonist activity (3 μM, %)” value in data set [1] was found to be 88%. This compound gave a microsomal CLint at 1 μmol/L in data set [2] of 13 µL/min/mg.

Consider `CS(=O)(=O)N[C@@H]1[C@H](Cc2cccc(-c3cc(F)cc(F)c3)c2F)N(C(=O)[C@H]2C[C@@H](F)C2)CC1(F)F` [Example 433, N-{(2S,3R)-4,4-difluoro-1-(3-fluorocyclobutane-1-carbonyl)-2-[(2,3′,5′-trifluoro[1,1′-biphenyl]-3-yl)methyl]pyrrolidin-3-yl}methanesulfonamide], for which the response vs control in vivo at 3 mg/kg in the data set with cynomolgus monkeys was 727%. Moreover, in data set [1], the “OX2R agonist activity (3 μM, %)” value was determined as 101%. In data set [2], this compound showed a microsomal CLint at 1 μmol/L of 16 µL/min/mg.

With `CC(C)(O)C(=O)N1CC(F)(F)[C@H](NS(C)(=O)=O)[C@@H]1Cc1cccc(-c2cc(F)cc(F)c2)c1F` [Example 2, N-{(2S,3R)-4,4-difluoro-1-(2-hydroxy-2-methylpropanoyl)-2-[(2,3′,5′-trifluoro[1,1′-biphenyl]-3-yl)methyl]pyrrolidin-3-yl}methanesulfonamide], the response vs control in vivo at 3 mg/kg in the data set on cynomolgus monkeys was 600%. Besides, in data set [1], the “OX2R agonist activity (3 μM, %)” value was 106%. The same compound yielded a microsomal CLint at 1 μmol/L in data set [2] of 40 µL/min/mg.

On to `CCS(=O)(=O)N[C@@H]1[C@H](Cc2cccc(-c3cc(F)ccc3F)c2F)N(C(=O)C(C)(C)O)CC1(F)F` [Example 67, N-{(2S,3R)-4,4-difluoro-1-(2-hydroxy-2-methylpropanoyl)-2-[(2,2′,5′-trifluoro[1,1′-biphenyl]-3-yl)methyl]pyrrolidin-3-yl}ethanesulfonamide], for which the response vs control in vivo at 3 mg/kg with cynomolgus monkeys came to 356%. Further, the “OX2R agonist activity (3 μM, %)” value in data set [1] turned out to be 111%. In data set [2], this compound showed an intrinsic metabolic clearance (microsomal CLint) at 1 μmol/L of 4 µL/min/mg.

For `CCS(=O)(=O)N[C@@H]1[C@H](Cc2cccc(-c3cc(F)cc(F)c3)c2F)N(C(=O)[C@H]2C[C@@H](F)C2)CC1(F)F` [Example 380, N-{(2S,3R)-4,4-difluoro-1-((1s,3R)-3-fluorocyclobutane-1-carbonyl)-2-[(2,3′,5′-trifluoro[1,1′-biphenyl]-3-yl)methyl]pyrrolidin-3-yl}ethanesulfonamide], the response vs control in vivo at 3 mg/kg with cynomolgus monkeys came out at 484%. The “OX2R agonist activity (3 μM, %)” value in data set [1] was 93%. Also, the microsomal CLint at 1 μmol/L in data set [2] was determined as 39 µL/min/mg.

Regarding `CCS(=O)(=O)N[C@@H]1[C@H](Cc2cccc(-c3cccc(F)c3)c2F)N(C(=O)[C@H]2CCO2)CC1(F)F` [Example 1, N-[(2S,3R)-2-[(2,3′-difluoro[1,1′-biphenyl]-3-yl)methyl]-4,4-difluoro-1-((2R)-oxetane-2-carbonyl)pyrrolidin-3-yl]ethanesulfonamide], the response vs control in vivo at 3 mg/kg in the data set with cynomolgus monkeys was 234%. Also, the “OX2R agonist activity (3 μM, %)” value in data set [1] worked out at 100%. The compound also had a microsomal CLint at 1 μmol/L in data set [2] of 75 µL/min/mg.

For the compound `CCS(=O)(=O)N[C@@H]1[C@H](Cc2cccc(-c3cc(F)cc(F)c3)c2F)N(C(=O)C(C)C)CC1(F)F` [Example 146, N-{(2S,3R)-4,4-difluoro-1-(2-methylpropanoyl)-2-[(2,3′,5′-trifluoro[1,1′-biphenyl]-3-yl)methyl]pyrrolidin-3-yl}ethanesulfonamide], the response vs control in vivo at 3 mg/kg in the data set on cynomolgus monkeys is 426%. For the same compound, the “OX2R agonist activity (3 μM, %)” value in data set [1] was 92%. The compound further had a microsomal CLint at 1 μmol/L in data set [2] of 83 µL/min/mg.

For `CS(=O)(=O)N[C@@H]1[C@H](Cc2cccc(-c3cc(F)cc(F)c3)c2F)N(C(=O)[C@H]2CCO2)CC1(F)F` [Example 91, N-{(2S,3R)-4,4-difluoro-1-((2R)-oxetane-2-carbonyl)-2-[(2,3′,5′-trifluoro[1,1′-biphenyl]-3-yl)methyl]pyrrolidin-3-yl}methanesulfonamide], the response vs control in vivo at 10 mg/kg with cynomolgus monkeys was 548%. Further, in data set [1], the “OX2R agonist activity (3 μM, %)” value came to 94%. Further, in data set [2], the intrinsic metabolic clearance (microsomal CLint) at 1 μmol/L was found to be 65 µL/min/mg.

Consider `CCS(=O)(=O)N[C@@H]1[C@H](Cc2cccc(-c3cc(F)cc(F)c3)c2F)N(C(=O)[C@H]2C[C@H](F)C2)CC1(F)F` [Example 375, N-{(2S,3R)-4,4-difluoro-1-((1r,3S)-3-fluorocyclobutane-1-carbonyl)-2-[(2,3′,5′-trifluoro[1,1′-biphenyl]-3-yl)methyl]pyrrolidin-3-yl}ethanesulfonamide], for which the response vs control in vivo at 3 mg/kg in the data set with cynomolgus monkeys stood at 396%. For the same compound, the “OX2R agonist activity (3 μM, %)” value in data set [1] was determined as 91%. The microsomal CLint at 1 μmol/L in data set [2] stood at 35 µL/min/mg.
